ChEMBL document CHEMBL1201862, “PubChem BioAssay data set” (2004)
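48-hour exposure; five concentrations; linearly interpolated endpoints. Abbreviation: GI50, concentration required for 50% inhibition of growth.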 Calls of active or inactive are those of the source. Rule as the data show it: active = GI50 up to about 1.1 µM and inactive = higher.

Columns and labels:
Test in all cases: inhibition of tumour cell growth, NCI panel, 48 h
CAKI-1 = tested on: CAKI-1
HCC 2998 = tested on: HCC 2998
UACC-62 = tested on: UACC-62
KM12 = tested on: KM12
SK-MEL-28 = tested on: SK-MEL-28
RPMI-8226 = tested on: RPMI-8226
U-251 = tested on: U-251
HT-29 = tested on: HT-29
RXF 393 = tested on: RXF 393
LXFL 529 = tested on: LXFL 529
TK-10 = tested on: TK-10
OVCAR-5 = tested on: OVCAR-5
OVCAR-3 = tested on: OVCAR-3
OVCAR-8 = tested on: OVCAR-8
SNB-19 = tested on: SNB-19
SF-295 = tested on: SF-295
DMS-273 = tested on: DMS-273
HOP-18 = tested on: HOP-18
SF-268 = tested on: SF-268
SW-620 = tested on: SW-620
RXF 631 = tested on: RXF 631
Malme-3M = tested on: Malme-3M
SF-539 = tested on: SF-539
NCI-H226 = tested on: NCI-H226
KM-20L2 = tested on: KM-20L2
LOX IMVI = tested on: LOX IMVI
A549 = tested on: A549
DLD-1 = tested on: DLD-1
MOLT-4 = tested on: MOLT-4
IGROV-1 = tested on: IGROV-1
HCT-116 = tested on: HCT-116
NCI-H460 = tested on: NCI-H460
EKVX = tested on: EKVX
HOP-62 = tested on: HOP-62
NCI-H23 = tested on: NCI-H23
HOP-92 = tested on: HOP-92
SK-MEL-5 = tested on: SK-MEL-5
CCRF-CEM = tested on: CCRF-CEM
UACC-257 = tested on: UACC-257
NCI-H522 = tested on: NCI-H522
SK-MEL-2 = tested on: SK-MEL-2
ACHN = tested on: ACHN
SN12C = tested on: SN12C
DMS-114 = tested on: DMS-114
786-0 = tested on: 786-0
M19-MEL = tested on: M19-MEL
SK-OV-3 = tested on: SK-OV-3
COLO 205 = tested on: COLO 205
HL-60 = tested on: HL-60
K562 = tested on: K562
SR = tested on: SR
OVCAR-4 = tested on: OVCAR-4
M14 = tested on: M14
UO-31 = tested on: UO-31
SNB-78 = tested on: SNB-78
SNB-75 = tested on: SNB-75
A498 = tested on: A498
HCT-15 = tested on: HCT-15
XF498 = tested on: XF498

ON/N=C/c1cc2c(cc1Br)OCO2
GI50 (CAKI-1): > 386 µM (inactive) | GI50 (HCC 2998): > 386 µM (inactive) | GI50 (UACC-62): > 386 µM (inactive) | GI50 (KM12): > 386 µM (inactive) | GI50 (SK-MEL-28): > 386 µM (inactive) | GI50 (RPMI-8226): > 386 µM (inactive) | GI50 (U-251): 329 µM (inactive) | GI50 (HT-29): > 386 µM (inactive) | GI50 (RXF 393): 114 µM (inactive) | GI50 (LXFL 529): > 386 µM (inactive) | GI50 (TK-10): > 386 µM (inactive) | GI50 (OVCAR-5): 164 µM (inactive) | GI50 (OVCAR-3): 295 µM (inactive) | GI50 (OVCAR-8): > 386 µM (inactive) | GI50 (SNB-19): > 386 µM (inactive) | GI50 (SF-295): > 386 µM (inactive) | GI50 (DMS-273): > 386 µM (inactive) | GI50 (HOP-18): > 386 µM (inactive) | GI50 (SF-268): 247 µM (inactive) | GI50 (SW-620): > 386 µM (inactive) | GI50 (RXF 631): > 386 µM (inactive) | GI50 (Malme-3M): > 386 µM (inactive) | GI50 (SF-539): > 386 µM (inactive) | GI50 (NCI-H226): > 386 µM (inactive) | GI50 (KM-20L2): > 386 µM (inactive) | GI50 (LOX IMVI): > 386 µM (inactive) | GI50 (A549): > 386 µM (inactive) | GI50 (DLD-1): > 386 µM (inactive) | GI50 (MOLT-4): 383 µM (inactive) | GI50 (IGROV-1): > 386 µM (inactive) | GI50 (HCT-116): > 386 µM (inactive) | GI50 (NCI-H460): > 386 µM (inactive) | GI50 (EKVX): 176 µM (inactive) | GI50 (HOP-62): > 386 µM (inactive) | GI50 (NCI-H23): > 386 µM (inactive) | GI50 (HOP-92): 144 µM (inactive) | GI50 (SK-MEL-5): > 386 µM (inactive) | GI50 (CCRF-CEM): > 386 µM (inactive) | GI50 (UACC-257): > 386 µM (inactive) | GI50 (NCI-H522): 230 µM (inactive) | GI50 (SK-MEL-2): > 386 µM (inactive) | GI50 (ACHN): > 386 µM (inactive) | GI50 (SN12C): > 386 µM (inactive) | GI50 (DMS-114): 251 µM (inactive) | GI50 (786-0): > 386 µM (inactive) | GI50 (M19-MEL): > 386 µM (inactive) | GI50 (SK-OV-3): > 386 µM (inactive) | GI50 (COLO 205): > 386 µM (inactive) | GI50 (HL-60): > 386 µM (inactive) | GI50 (K562): > 386 µM (inactive) | GI50 (SR): > 386 µM (inactive)

CCOC(=O)c1cc2c(nc1N)-c1ncccc1CC2
GI50 (CAKI-1): > 100 µM (inactive) | GI50 (HCC 2998): > 100 µM (inactive) | GI50 (UACC-62): 58.1 µM (inactive) | GI50 (KM12): 49.9 µM (inactive) | GI50 (SK-MEL-28): 36.6 µM (inactive) | GI50 (RPMI-8226): 22.6 µM (inactive) | GI50 (U-251): 43.8 µM (inactive) | GI50 (HT-29): 16.4 µM (inactive) | GI50 (RXF 393): > 100 µM (inactive) | GI50 (OVCAR-4): > 100 µM (inactive) | GI50 (LXFL 529): 50.7 µM (inactive) | GI50 (M14): > 100 µM (inactive) | GI50 (TK-10): > 100 µM (inactive) | GI50 (OVCAR-5): > 100 µM (inactive) | GI50 (OVCAR-3): 18.5 µM (inactive) | GI50 (UO-31): 88.1 µM (inactive) | GI50 (SNB-78): > 100 µM (inactive) | GI50 (OVCAR-8): 83.6 µM (inactive) | GI50 (SNB-75): > 100 µM (inactive) | GI50 (SNB-19): 59.7 µM (inactive) | GI50 (SF-295): 54.5 µM (inactive) | GI50 (DMS-273): 43.5 µM (inactive) | GI50 (HOP-18): > 100 µM (inactive) | GI50 (SF-268): > 100 µM (inactive) | GI50 (SW-620): 59.8 µM (inactive) | GI50 (RXF 631): > 100 µM (inactive) | GI50 (Malme-3M): > 100 µM (inactive) | GI50 (SF-539): > 100 µM (inactive) | GI50 (NCI-H226): 66.2 µM (inactive) | GI50 (A498): 76.7 µM (inactive) | GI50 (KM-20L2): 37.2 µM (inactive) | GI50 (LOX IMVI): 65.6 µM (inactive) | GI50 (A549): 38.5 µM (inactive) | GI50 (DLD-1): 52.7 µM (inactive) | GI50 (MOLT-4): 47.6 µM (inactive) | GI50 (IGROV-1): 49.4 µM (inactive) | GI50 (HCT-116): 44.3 µM (inactive) | GI50 (NCI-H460): 77.1 µM (inactive) | GI50 (HCT-15): 32 µM | GI50 (EKVX): 43.8 µM (inactive) | GI50 (HOP-62): 83.8 µM (inactive) | GI50 (NCI-H23): 37.2 µM (inactive) | GI50 (HOP-92): > 100 µM (inactive) | GI50 (SK-MEL-5): 38.9 µM (inactive) | GI50 (CCRF-CEM): 20.4 µM (inactive) | GI50 (UACC-257): 38.5 µM (inactive) | GI50 (NCI-H522): 33.4 µM (inactive) | GI50 (SK-MEL-2): > 100 µM (inactive) | GI50 (ACHN): 61.7 µM (inactive) | GI50 (SN12C): 94.4 µM (inactive) | GI50 (DMS-114): 8.95 µM (inactive) | GI50 (786-0): 82.2 µM (inactive) | GI50 (M19-MEL): 89.5 µM (inactive) | GI50 (SK-OV-3): 45.1 µM (inactive) | GI50 (COLO 205): 31.5 µM (inactive) | GI50 (HL-60): 28.1 µM (inactive) | GI50 (K562): 27 µM (inactive) | GI50 (SR): 18.7 µM (inactive)

O=C1CCC2(c3ccccc3)Nc3cc(Cl)ccc3N12 (stereo not drawn)
GI50 (CAKI-1): 21 µM (inactive) | GI50 (HCC 2998): 42.1 µM (inactive) | GI50 (UACC-62): 19 µM (inactive) | GI50 (KM12): 27.6 µM (inactive) | GI50 (SK-MEL-28): 36.2 µM (inactive) | GI50 (RPMI-8226): 22 µM (inactive) | GI50 (U-251): 48 µM (inactive) | GI50 (HT-29): 31.7 µM (inactive) | GI50 (RXF 393): 28.4 µM (inactive) | GI50 (OVCAR-4): 35.2 µM (inactive) | GI50 (LXFL 529): 31.4 µM (inactive) | GI50 (M14): 30.1 µM (inactive) | GI50 (TK-10): 39.2 µM (inactive) | GI50 (OVCAR-5): 58.9 µM (inactive) | GI50 (OVCAR-3): 21.8 µM (inactive) | GI50 (UO-31): 25.5 µM (inactive) | GI50 (SNB-78): 31.7 µM (inactive) | GI50 (OVCAR-8): 38.6 µM (inactive) | GI50 (SNB-75): 16 µM (inactive) | GI50 (SF-295): 27.4 µM (inactive) | GI50 (SF-268): 40.8 µM (inactive) | GI50 (SW-620): 41.5 µM (inactive) | GI50 (XF498): 19.7 µM (inactive) | GI50 (RXF 631): 47.5 µM (inactive) | GI50 (Malme-3M): 25.8 µM (inactive) | GI50 (SF-539): 41.3 µM (inactive) | GI50 (NCI-H226): 19.2 µM (inactive) | GI50 (A498): 35.4 µM (inactive) | GI50 (KM-20L2): 30 µM (inactive) | GI50 (LOX IMVI): 33 µM (inactive) | GI50 (A549): 31 µM (inactive) | GI50 (DLD-1): 34.9 µM (inactive) | GI50 (MOLT-4): 21.6 µM (inactive) | GI50 (IGROV-1): 41.2 µM (inactive) | GI50 (NCI-H460): 32.7 µM (inactive) | GI50 (HCT-15): 35.2 µM | GI50 (EKVX): 33.3 µM (inactive) | GI50 (HOP-62): 25.4 µM (inactive) | GI50 (NCI-H23): 22.3 µM (inactive) | GI50 (HOP-92): 13.7 µM (inactive) | GI50 (SK-MEL-5): 16.9 µM (inactive) | GI50 (CCRF-CEM): 25.1 µM (inactive) | GI50 (UACC-257): 24 µM (inactive) | GI50 (NCI-H522): 26.9 µM (inactive) | GI50 (SK-MEL-2): 22.2 µM (inactive) | GI50 (ACHN): 26.9 µM (inactive) | GI50 (SN12C): 35.1 µM (inactive) | GI50 (DMS-114): 21.4 µM (inactive) | GI50 (786-0): 35.6 µM (inactive) | GI50 (M19-MEL): 30.8 µM (inactive) | GI50 (SK-OV-3): 43.8 µM (inactive) | GI50 (COLO 205): 17.7 µM (inactive) | GI50 (HL-60): 20.8 µM (inactive) | GI50 (K562): 32 µM (inactive)
